Assay results published in publication PMC4999309, “Structures of TorsinA and its disease-mutant complexed with an activator reveal the molecular basis for primary dystonia” (eLife, 2016).

Molecular target: T1, TorsinAEQ-LULL1 (TorsinA-ATP-LULL1) (Homo sapiens, UniProt O14656+Q8NFQ8, O14656:E171Q)
T1 construct: gene TOR1A; TorsinA 51-332 (E171Q ATP trap), N-terminal 10xHis-7xArg tag cut by 3C; untagged luminal domain LULL1 233-470; co-expressed in E. coli with alpaca nanobody VHH-BS2 (crystallisation chaperone); heterodimer plus nanobody
Experiment: X-ray crystal structure, […] Å
Format: binding
Settings: 2 mM ATP, pH 6.5; crystallised with nanobody VHH-BS2; ATP in Walker A/B nucleotide site with LULL1 Arg449 finger

SMILES: Nc1ncnc2c1ncn2[C@@H]1O[C@H](COP(=O)(O)OP(=O)(O)OP(=O)(O)O)[C@@H](O)[C@H]1O [ATP]
- X-ray crystal structure, 1.40 Å: An ATP molecule is bound in the manner characteristic of P-loop NTPases
